Laboratory results published in patent US9834559B2, “4-Amino-6-phenyl-5,6-dihydroimidazo[1,5-a]pyrazin-3(2H)-one derivatives as inhibitors of beta-secretase (BACE)” (Janssen Pharmaceutica NV, priority 2013, dated 2017).

Key:
[1] = tested on: Abeta total produced and secreted by human neuroblastoma SKNBE2 cells expressing hAPP695; experiment: Cellular αLisa assay in SKNBE2 cells, Abeta total; assay type: cell-based; settings: 18 hours incubation, read-out: Cellular αLisa assay in SKNBE2 cells Abetatotal pIC50 (converted)
Procedure: (§1) In two αLisa assays the levels of Abeta total and Abeta 1-42 produced and secreted into the medium of human neuroblastoma SKNBE2 cells are quantified. The assay is based on the human neuroblastoma SKNBE2 expressing the wild type Amyloid Precursor Protein (hAPP695). The compounds are diluted and added to these cells, incubated for 18 hours and then measurements of Abeta 1-42 and Abeta total are taken. Abeta total and Abeta 1-42 are measured by sandwich αLisa. αLisa is a sandwich assay using biotinylated antibody AbN/25 attached to streptavidin coated beads and antibody Ab4G8 or cAb42/26 conjugated acceptor beads for the detection of Abeta total and Abeta 1-42 respectively. In the presence of Abeta total or Abeta 1-42, the beads come into close proximity. The excitation of the donor beads provokes the release of singlet oxygen molecules that trigger a cascade of energy transfer in the acceptor beads, resulting in light emission. Light emission is measured after 1 hour incubation (excitation at […] and emission at 615 nm).
(§2) A best-fit curve is fitted by a minimum sum of squares method to the plot of % Controlmin versus compound concentration. From this an IC50 value (inhibitory concentration causing 50% inhibition of activity) can be obtained. • LC=Median of the low control values • =Low control: cells preincubated without compound, without biotinylated Ab in the αLisa • HC=Median of the High control values • =High Control: cells preincubated without compound • % Effect=100−[(sample−LC)/(HC−LC)*100] • % Control=(sample/HC)*100 • % Controlmin=(sample−LC)/(HC−LC)*100

[2] = biological target: T1, recombinant BACE2 protein (Homo sapiens, UniProt Q9Y5Z0); experiment: BACE2 biochemical FRET based assay; settings: BACE2 0.4 μg/ml, 10 μM substrate, pH 5.0, 450 min; read-out: BACE2 Biochemical FRET based assay pIC50 (converted)
T1 sequence (Q9Y5Z0 63-518): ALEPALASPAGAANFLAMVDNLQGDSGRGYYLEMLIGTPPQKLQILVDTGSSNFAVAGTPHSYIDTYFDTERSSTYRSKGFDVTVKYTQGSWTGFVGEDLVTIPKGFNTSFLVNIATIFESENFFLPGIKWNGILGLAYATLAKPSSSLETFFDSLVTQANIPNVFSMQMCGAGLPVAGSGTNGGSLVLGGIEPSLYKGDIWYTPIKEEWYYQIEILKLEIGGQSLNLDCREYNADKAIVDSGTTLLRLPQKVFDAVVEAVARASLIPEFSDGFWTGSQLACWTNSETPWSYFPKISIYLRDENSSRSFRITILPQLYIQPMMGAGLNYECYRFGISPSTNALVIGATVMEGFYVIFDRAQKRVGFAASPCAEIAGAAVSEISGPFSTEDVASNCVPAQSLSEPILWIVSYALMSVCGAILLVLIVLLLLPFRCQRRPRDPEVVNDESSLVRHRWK
Description: (§3) This assay is a Fluorescence Resonance Energy Transfer Assay (FRET) based assay. The substrate for this assay contains the ‘Swedish’ Lys-Met/Asn-Leu mutation of the amyloid precursor protein (APP) beta-secretase cleavage site. This substrate also contains two fluorophores: (7-methoxycoumarin-4-yl) acetic acid (Mca) is a fluorescent donor with excitation wavelength at 320 nm and emission at 405 nm and 2,4-Dinitrophenyl (Dnp) is a proprietary quencher acceptor. […] Upon cleavage by the beta-secretase, the fluorophore Mca is separated from the quenching group Dnp, restoring the full fluorescence yield of the donor. The increase in fluorescence is linearly related to the rate of proteolysis.
Briefly in a 384-well format recombinant BACE2 protein in a final concentration of 0.4 μg/ml is incubated for 450 minutes at room temperature with 10 μM substrate in incubation buffer (50 mM Citrate buffer pH 5.0, 0.05% PEG, no DMSO) in the absence or presence of compound. Next the amount of proteolysis is directly measured by fluorescence measurement at T=0 and T=450 (excitation at 320 nm and emission at 405 nm). Results are expressed in RFU (Relative Fluorescence Units), as difference between T450 and T0.
as §2, with “control: Reaction” for “control: cells preincubated”, “without enzyme” for “without compound, without biotinylated Ab in the αLisa”, “Control: Reaction with enzyme” for “Control: cells preincubated without compound”

[3] = biological target: recombinant BACE1 protein (Homo sapiens, UniProt P56817); experiment: BACE1 biochemical FRET based assay; settings: BACE1 0.04 μg/ml, 20 μM substrate, pH 5.0, 450 min; read-out: Biochemical FRET based assay pIC50 (converted)
Sequence of recombinant BACE1 protein (P56817 46-501): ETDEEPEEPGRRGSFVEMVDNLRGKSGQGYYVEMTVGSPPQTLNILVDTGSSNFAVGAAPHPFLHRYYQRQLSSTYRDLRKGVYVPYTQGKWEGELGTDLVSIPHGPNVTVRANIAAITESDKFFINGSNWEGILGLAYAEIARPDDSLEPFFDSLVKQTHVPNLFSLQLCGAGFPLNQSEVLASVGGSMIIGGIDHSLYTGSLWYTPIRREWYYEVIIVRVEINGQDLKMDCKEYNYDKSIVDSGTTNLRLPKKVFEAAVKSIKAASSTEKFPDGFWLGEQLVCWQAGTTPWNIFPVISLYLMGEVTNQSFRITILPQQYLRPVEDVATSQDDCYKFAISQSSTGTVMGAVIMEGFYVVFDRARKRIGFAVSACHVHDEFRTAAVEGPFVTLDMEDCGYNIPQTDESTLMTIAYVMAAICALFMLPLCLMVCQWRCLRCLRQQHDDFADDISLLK
Description: as §3, with “this assay is an APP derived 13 amino acids peptide that contains the” for “this assay contains the”, “cleavage by BACE1, the fluorophore” for “cleavage by the beta-secretase, the fluorophore”
Briefly in a 384-well format recombinant BACE1 protein in a final concentration of 0.04 μg/ml is incubated for 450 minutes at room temperature with 20 μM substrate in incubation buffer (50 mM Citrate buffer pH 5.0, 0.05% PEG) in the presence of compound or DMSO. Next the amount of proteolysis is directly measured by fluorescence measurement (excitation at 320 nm and emission at 405 nm) at different incubation times (0, 30, 60, 90, 120 and 450 min). For every experiment a time curve (every 30 min between 0 min and 120 min) is used to determine the time where we find the lowest basal signal of the high control. The signal at this time (Tx) is used to subtract from the signal at 450 min. Results are expressed in RFU, as difference between T450 and Tx.
as §2, with “control: Reaction” for “control: cells preincubated”, “without enzyme” for “without compound, without biotinylated Ab in the αLisa”, “Control: Reaction with enzyme” for “Control: cells preincubated without compound”

[4] = tested on: Abeta 1-42 produced and secreted by human neuroblastoma SKNBE2 cells expressing hAPP695; experiment: Cellular αLisa assay in SKNBE2 cells, Abeta 1-42; assay type: cell-based; settings: 18 hours incubation, read-out: Cellular αLisa assay in SKNBE2 cells Abeta 42 pIC50 (converted)
Procedure: as §1, §2

| Structure (SMILES) | IC50 [1] | IC50 [2] | IC50 [3] | melting point | IC50 [4] |
| --- | --- | --- | --- | --- | --- |
| Cn1cc2n(c1=O)C[C@@](C)(c1cc(-c3cncnc3)ccc1F)N=C2N [Compound 2, (6R)-8-Amino-6-(2-fluoro-5-pyrimidin-5-ylphenyl)-2,6-dimethyl-5,6-dihydro-imidazo[1,5-a]pyrazin-3(2H)-one] | 1.02 µM | 7.08 µM | 0.49 µM | 239.1 °C | 1.26 µM |
| C[C@@]1(c2cc(NC(=O)c3ccc(F)cn3)ccc2F)Cn2c(cn(CC(F)(F)F)c2=O)C(N)=N1 [Compound 7, N-{3-[(6R)-8-amino-6-methyl-3-oxo-2-(2,2,2-trifluoroethyl)-2,3,5,6-tetrahydroimidazo[1,5-a]pyrazin-6-yl]-4-fluorophenyl}-5-fluoropyridine-2-carboxamide] | 0.0166 µM | 0.00741 µM | 0.0123 µM | 239.9 °C | 0.0186 µM |
| C[C@@]1(c2cc(NC(=O)c3ccc(Cl)cn3)ccc2F)Cn2c(cn(CC(F)(F)F)c2=O)C(N)=N1 [Compound 8, N-{3-[(6R)-8-amino-6-methyl-3-oxo-2-(2,2,2-trifluoroethyl)-2,3,5,6-tetrahydroimidazo[1,5-a]pyrazin-6-yl]-4-fluorophenyl}-5-chloropyridine-2-carboxamide] | 0.00479 µM | 0.00661 µM | 0.00468 µM | 219.9 °C | 0.00562 µM |

Results, then the molecule that gave them:

| IC50 [1] | IC50 [2] | IC50 [3] | melting point | IC50 [4] | Structure (SMILES) |
| --- | --- | --- | --- | --- | --- |
| 0.0295 µM | 0.1 µM | 0.00955 µM |  | 0.0363 µM | COc1cnc(C(=O)Nc2ccc(F)c([C@]3(C)Cn4c(cn(C)c4=O)C(N)=N3)c2)cn1 [Compound 5, N-{3-[(6R)-8-amino-2,6-dimethyl-3-oxo-2,3,5,6-tetrahydroimidazo[1,5-a]pyrazin-6-yl]-4-fluorophenyl}-5-methoxypyrazine-2-carboxamide] |
| 0.0891 µM | 0.0132 µM | 0.0151 µM |  | 0.0871 µM | Cn1cc2n(c1=O)C[C@@](C)(c1cc(NC(=O)c3ccc(F)cn3)ccc1F)N=C2N [Compound 6, N-{3-[(6R)-8-amino-2,6-dimethyl-3-oxo-2,3,5,6-tetrahydroimidazo[1,5-a]pyrazin-6-yl]-4-fluorophenyl}-5-fluoropyridine-2-carboxamide] |
| 0.0331 µM | 0.0229 µM | 0.00776 µM |  | 0.0389 µM | Cc1cc(C#N)cnc1C(=O)Nc1ccc(F)c([C@]2(C)Cn3c(cn(C)c3=O)C(N)=N2)c1 [Compound 9, N-{3-[(6R)-8-amino-2,6-dimethyl-3-oxo-2,3,5,6-tetrahydroimidazo[1,5-a]pyrazin-6-yl]-4-fluorophenyl}-5-cyano-3-methylpyridine-2-carboxamide] |
| 0.0107 µM | 0.012 µM | 0.00562 µM | 235 °C | 0.0126 µM | C[C@@]1(c2cc(NC(=O)c3ccc(C#N)cn3)ccc2F)Cn2c(cn(CC(F)(F)F)c2=O)C(N)=N1 [Compound 10, N-{3-[(6R)-8-amino-6-methyl-3-oxo-2-(2,2,2-trifluoroethyl)-2,3,5,6-tetrahydroimidazo[1,5-a]pyrazin-6-yl]-4-fluorophenyl}-5-cyanopyridine-2-carboxamide] |
| 0.01 µM | 0.055 µM | 0.00871 µM | 280.5 °C | 0.0123 µM | COc1cnc(C(=O)Nc2ccc(F)c([C@]3(C)Cn4c(cn(CC(F)(F)F)c4=O)C(N)=N3)c2)cn1 [Compound 11, N-{3-[(6R)-8-amino-6-methyl-3-oxo-2-(2,2,2-trifluoroethyl)-2,3,5,6-tetrahydroimidazo[1,5-a]pyrazin-6-yl]-4-fluorophenyl}-5-methoxypyrazine-2-carboxamide] |
